Holding throughout (type): in vivo
For series [1], the system named is Lolium rigidum (LOLRI). Kind of series: C. Herbicidal pre-emergence efficacy, LOLRI. Conditions: scored after about 3 weeks. In a few lines:
(§1)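 Pre-emergence test: formulated compounds sprayed as aqueous suspension or emulsion with 0.5% additive at 600 l/ha onto soil covering sown seeds, at rates corresponding to 320 g/ha or less. After about 3 weeks in greenhouse, efficacy scored visually as percent versus untreated controls (100% = plants dead).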

Series [2] deals with Kochia scoparia (KCHSC). The experiment in a line: C. Herbicidal pre-emergence efficacy, KCHSC. Summed up:
as §1

Series [3] has as its system Triticum aestivum (TRZAS). The experiment in a line: F. Post-emergence effect on useful plants, TRZAS. The conditions noted are these: useful plant. In a few lines:
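Crop plants grown in sandy loam in the greenhouse were sprayed at the one-leaf stage, 2-3 weeks after sowing, with WP or EC formulations plus 0.5% additive at 600 l/ha water. Damage was scored visually after about 3 weeks against untreated controls (0% = like control, 100% = dead).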

In a further series the test system is Veronica persica (VERPE). The experiment in a line: C. Herbicidal pre-emergence efficacy, VERPE. The conditions noted are these: scored after about 3 weeks. In a few lines:
as §1

Series [4] deals with Abutilon theophrasti (ABUTH). The experiment in a line: E. Herbicidal post-emergence efficacy, ABUTH. Summed up:
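Greenhouse weeds were treated post-emergence at the one-leaf stage, 2-3 weeks after sowing in sandy loam, with WP or EC formulations sprayed as aqueous suspension/emulsion plus 0.5% additive at 600 l/ha, at 320 g/ha or less. Efficacy was rated visually after about 3 weeks versus untreated controls (100% = dead, 0% = like control).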

In series [5] the test system is Polygonum convolvulus (POLCO). The experiment in a line: C. Herbicidal pre-emergence efficacy, POLCO. The conditions noted are these: scored after about 3 weeks. In a few lines: as §1
The test system of series [6] is Digitaria sanguinalis (DIGSA). Kind of series: A. Herbicidal pre-emergence efficacy, DIGSA. The conditions noted are these: scored visually after about 3 weeks vs untreated controls. In a few lines:
(§2)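 Pre-emergence soil-surface spray in sandy loam pots, WP/EC in water plus 0.5% additive, 600 L/ha. Visual % damage rating after about 3 weeks in greenhouse vs. untreated; 0% = control-like, 100% = dead plants. Rates up to 1280 g/ha.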

Series [7] has as its system Kochia scoparia (KCHSC). The experiment in a line: A. Herbicidal pre-emergence efficacy, KCHSC. Summed up:
as §2

Series [8] concerns Lolium rigidum (LOLRI). The experiment in a line: A. Herbicidal pre-emergence efficacy, LOLRI. In a few lines: as §2
Setting [9] is: 80 g/ha, scored visually after about 3 weeks vs untreated controls.
Where [10] appears, read: pre-emergence, dosage 1280 g/ha.

Take `O=S(=O)(CCC(F)=C(F)F)Oc1c(F)cccc1Oc1ncc(Cl)cn1` [Example I-70]: in the series with Lolium rigidum (LOLRI) [1] (320 g/ha), the “Pre-emergence efficacy against LOLRI” value amounted to 100%. Also, the “Pre-emergence efficacy against KCHSC in %” value in the series with Kochia scoparia (KCHSC) [2] (application rate 80 g/ha) and in the series with Kochia scoparia (KCHSC) [2] (application rate 320 g/ha) was 100% throughout. In addition, the “Post-emergence efficacy against TRZAS in %” value in series [3] (application rate 80 g/ha) was 20%. Besides, the “Pre-emergence efficacy against VERPE” value with Veronica persica (VERPE) (80 g/ha) is recorded as 80%; with Veronica persica (VERPE) (320 g/ha) it was 100%. For the same compound, the “Post-emergence efficacy against ABUTH in %” value in series [4] (application rate 80 g/ha) was determined as 80%; in series [4] (application rate 320 g/ha), 90%. Further, the “Pre-emergence efficacy against POLCO” value in [5] (80 g/ha) and in series [5] (320 g/ha) was 100% throughout.
With `O=S(=O)(CCCC(F)F)Oc1c(F)cccc1Oc1ncc(Cl)cn1` [Example I-56], the “Pre-emergence efficacy against LOLRI” value with Lolium rigidum (LOLRI) [1] (80 g/ha), with Lolium rigidum (LOLRI) [1] (320 g/ha), with Lolium rigidum (LOLRI) [8] (dosage 320 g/ha) and in the series on Lolium rigidum (LOLRI) [8] (dosage 1280 g/ha) was 100% each time. Besides, the “Pre-emergence efficacy against DIGSA” value in series [6] (80 g/ha), in [6] (320 g/ha) and in series [6] (1280 g/ha) was 100% each time. For the same compound, the “Pre-emergence efficacy against KCHSC” value is on record as 100% in the series with Kochia scoparia (KCHSC) [7] (setting [9]); 100% with Kochia scoparia (KCHSC) [7] (pre-emergence, dosage 320 g/ha); 100% with Kochia scoparia (KCHSC) [7] (setting [10]). In addition, the “Pre-emergence efficacy against KCHSC in %” value with Kochia scoparia (KCHSC) [2] (application rate 80 g/ha) and with Kochia scoparia (KCHSC) [2] (application rate 320 g/ha) was 100% in each case. For the same compound, the “Post-emergence efficacy against TRZAS in %” value in series [3] (application rate 80 g/ha) is given as 10%. Besides, in series [4] (application rate 320 g/ha), the “Post-emergence efficacy against ABUTH in %” value is 100%. In addition, the “Pre-emergence efficacy against POLCO” value in [5] (80 g/ha) and in series [5] (320 g/ha) was 100% throughout.
`Cc1cccc(Oc2ncc(F)cn2)c1OS(=O)(=O)CCCC(F)(F)F` [Example I-46]: the “Pre-emergence efficacy against LOLRI” value in the series with Lolium rigidum (LOLRI) [1] (320 g/ha), in the series with Lolium rigidum (LOLRI) [8] (dosage 320 g/ha) and in the series with Lolium rigidum (LOLRI) [8] (dosage 1280 g/ha) was 100% throughout. Besides, the “Pre-emergence efficacy against DIGSA” value in series [6] (80 g/ha) is reported as 90%; in series [6] (320 g/ha), 100%; in series [6] (1280 g/ha), 100%. Moreover, the “Pre-emergence efficacy against KCHSC” value with Kochia scoparia (KCHSC) [7] (setting [10]) is reported as 90%. Moreover, the “Pre-emergence efficacy against KCHSC in %” value in the series with Kochia scoparia (KCHSC) [2] (application rate 320 g/ha) was determined as 100%. Moreover, the “Post-emergence efficacy against TRZAS in %” value is on record as 0% in series [3] (application rate 80 g/ha) and 10% in series [3] (application rate 320 g/ha). Besides, the “Post-emergence efficacy against ABUTH in %” value in series [4] (application rate 320 g/ha) was determined as 90%. In addition, the “Pre-emergence efficacy against POLCO” value in [5] (80 g/ha) worked out at 90%; in [5] (320 g/ha) it was 100%.
In the case of `O=S(=O)(CCC(F)(F)F)Oc1c(F)cccc1Oc1ncc(F)cn1` [Example I-47], the “Pre-emergence efficacy against LOLRI” value in the series on Lolium rigidum (LOLRI) [1] (80 g/ha) turned out to be 90%; with Lolium rigidum (LOLRI) [1] (320 g/ha), 100%; with Lolium rigidum (LOLRI) [8] (dosage 320 g/ha), 100%; in the series on Lolium rigidum (LOLRI) [8] (dosage 1280 g/ha), 100%. The “Pre-emergence efficacy against DIGSA” value in series [6] (80 g/ha), in series [6] (320 g/ha) and in [6] (1280 g/ha) was 100% throughout. For the same compound, the “Pre-emergence efficacy against KCHSC” value is 100% in the series with Kochia scoparia (KCHSC) [7] (setting [9]); 100% with Kochia scoparia (KCHSC) [7] (pre-emergence, dosage 320 g/ha); 100% in the series on Kochia scoparia (KCHSC) [7] (setting [10]). Also, the “Pre-emergence efficacy against KCHSC in %” value in the series on Kochia scoparia (KCHSC) [2] (application rate 80 g/ha) and with Kochia scoparia (KCHSC) [2] (application rate 320 g/ha) was 100% throughout. Moreover, the “Post-emergence efficacy against TRZAS in %” value in series [3] (application rate 80 g/ha) stood at 0%. Also, the “Post-emergence efficacy against ABUTH in %” value in series [4] (application rate 320 g/ha) is 100%. Moreover, the “Pre-emergence efficacy against POLCO” value in [5] (80 g/ha) and in [5] (320 g/ha) was 100% throughout.
On to `O=S(=O)(CCCC(F)(F)F)Oc1c(F)cccc1Oc1ncc(F)cn1` [Example I-42], for which the “Pre-emergence efficacy against LOLRI” value with Lolium rigidum (LOLRI) [1] (80 g/ha), with Lolium rigidum (LOLRI) [1] (320 g/ha), in the series with Lolium rigidum (LOLRI) [8] (dosage 320 g/ha) and with Lolium rigidum (LOLRI) [8] (dosage 1280 g/ha) was 100% each time. Also, the “Pre-emergence efficacy against DIGSA” value in series [6] (80 g/ha), in series [6] (320 g/ha) and in [6] (1280 g/ha) was 100% throughout. Also, the “Pre-emergence efficacy against KCHSC” value was found to be 100% with Kochia scoparia (KCHSC) [7] (setting [9]); 100% with Kochia scoparia (KCHSC) [7] (pre-emergence, dosage 320 g/ha); 100% with Kochia scoparia (KCHSC) [7] (setting [10]). Besides, the “Pre-emergence efficacy against KCHSC in %” value with Kochia scoparia (KCHSC) [2] (application rate 80 g/ha) and with Kochia scoparia (KCHSC) [2] (application rate 320 g/ha) was 100% in each case. In addition, the “Pre-emergence efficacy against VERPE” value in the series with Veronica persica (VERPE) (80 g/ha) and with Veronica persica (VERPE) (320 g/ha) was 100% each time. Moreover, the “Post-emergence efficacy against ABUTH in %” value in series [4] (application rate 80 g/ha) was found to be 80%; in [4] (application rate 320 g/ha), 100%. The “Pre-emergence efficacy against POLCO” value in [5] (80 g/ha) and in series [5] (320 g/ha) was 100% in each case.

(Values after patent publication US20240174618A1, “SUBSTITUTED (2-HETEROARYLOXYPHENYL)SULFONATES, SALTS THEREOF AND THEIR USE AS HERBICIDAL AGENTS” (Bayer Aktiengesellschaft, priority 2021, published 2024).)
